Paper PMC5951806, “Rapid labelling and covalent inhibition of intracellular native proteins using ligand-directed N-acyl-N-alkyl sulfonamide” (Nature Communications, 2018)

Legend:
[1] = target: Pyruvate kinase PKM (PKM) (Homo sapiens, UniProt P14618); assay: TMT LC-MSMS of 11-labelled proteins; type: cell-based
Text: (§1) The labelled proteins were enriched by immunoprecipitation with an anti-fluorescein antibody and tryptically digested in gel. Digested peptides were modified with Light- (L-), Medium- (M-), or Heavy- (H-) TMT reagent for samples treated with 11, 11 with PU-H71 (as competitive condition), or DMSO (vehicle), respectively, and mixed in a 1:1:1 ratio for LC-MSMS analysis. We performed three experimental replicates, in which proteins detected and quantified at least twice were selected as identified proteins. According to the related approach of Cravatt et al[44], the proteins having L/H (11/DMSO) ratios >5 were defined as 11-labelled proteins. […] On the basis of these criteria, we identified 6 proteins that react with 11, including three ligand-specific targets (Hsp90α (HSP90AA1), Hsp90β (HSP90AB1), and Grp94 (HSP90B1)) and three off-targets (Trifunctional enzyme subunit α (HADHA), Tubulin-α (TUBA1B), and ADP/ATP translocase 3 (SLC25A6)) (Fig. 5d, e and Supplementary Data 1). […] Grp94, a HSP90 isomer, was previously reported to be a PU-H71 specific target. TRAP-1, another Hsp90 isomer that can bind PU-H71, on the other hand, was not identified as 11-target by our criteria.
(§2) SKBR3 human breast cancer cells (2.0 × 10^6 cells) were seeded on a 10 cm dish and cultured for 3 days in McCoy’s 5A in a 5% CO2 humidified chamber at 37 °C. […] As competitive experiments, the labelling was conducted in the presence of PU-H71 (10 µM). After labelling, the cells were washed twice with PBS, and lysed with RIPA buffer. […] The supernatant was mixed with chilled acetone and incubated overnight at −80 °C. The protein precipitates were solubilized by sonication in 1 mL of RIPA buffer containing 1% SDS, and then 10-fold diluted with RIPA buffer to reduce SDS concentration to c.a. 0.1%. The protein solution (containing 1 mg of protein) was mixed with Protein G Sepharose 4 Fast Flow (GE Healthcare) and rotated at 4 °C for 1 h. After removal of the beads, the remaining supernatant was mixed with anti-fluorescein antibody (Abcam, ab19491, 7:10000) and rotated at 4 °C for 1 h, followed by addition of fresh Protein G Sepharose 4 Fast Flow and further incubation at 4 °C for 4 h. The beads were washed five times with RIPA buffer and once with PBS. Proteins were eluted from the beads by addition of 2 × sample buffer containing 100 mM DTT and boiling at 95 °C for 5 min. The samples were subjected to a 7.5% SDS–PAGE gel (Mini-PROTEAN TGX Gels, BioRad), and electrophoresed as the migration distance of dye front is about 10 mm. Each lane was excised (height, 10 mm), and treated with a 47.5% methanol / 47.5% pure water / 5% acetic acid for 20 min, a 50% methanol / 50% pure water for 10 min, and in pure water for 10 min. The gel pieces were dehydrated with 100% acetonitrile, and then swelled with 200 μL of 100 mM TEAB (triethylamine bicarbonate) buffer containing 10 mM DTT and heated at 56 °C for 30 min. The solutions were replaced with 200 µL of 100 mM TEAB buffer containing 55 mM iodoacetamide and incubated for 45 min in the dark. The gel pieces were washed with 100 mM TEAB buffer and dehydrated in acetonitrile. This step was repeated once. The gels were reswelled in 100 mM TEAB buffer containing 10 ng/μL Sequencing Grade Trypsin (Promega) and incubated overnight at 37 °C. To the gels, 50 μL of an extraction solution (50% acetonitrile, 0.1% TFA) was added. After 10 min incubation, the supernatants were collected to new tubes, and this process was repeated twice. Extracted peptides were dried in vacuo and reconstituted with 25 μL of 100 mM TEAB buffer.

[2] = target: T1, Isoform 3 of Very long-chain specific acyl-CoA dehydrogenase, mitochondrial (ACADVL) (Homo sapiens, UniProt P49748); assay: TMT LC-MSMS of 11-labelled proteins; type: cell-based
T1 sequence (P49748 64-678 isoform P49748-3): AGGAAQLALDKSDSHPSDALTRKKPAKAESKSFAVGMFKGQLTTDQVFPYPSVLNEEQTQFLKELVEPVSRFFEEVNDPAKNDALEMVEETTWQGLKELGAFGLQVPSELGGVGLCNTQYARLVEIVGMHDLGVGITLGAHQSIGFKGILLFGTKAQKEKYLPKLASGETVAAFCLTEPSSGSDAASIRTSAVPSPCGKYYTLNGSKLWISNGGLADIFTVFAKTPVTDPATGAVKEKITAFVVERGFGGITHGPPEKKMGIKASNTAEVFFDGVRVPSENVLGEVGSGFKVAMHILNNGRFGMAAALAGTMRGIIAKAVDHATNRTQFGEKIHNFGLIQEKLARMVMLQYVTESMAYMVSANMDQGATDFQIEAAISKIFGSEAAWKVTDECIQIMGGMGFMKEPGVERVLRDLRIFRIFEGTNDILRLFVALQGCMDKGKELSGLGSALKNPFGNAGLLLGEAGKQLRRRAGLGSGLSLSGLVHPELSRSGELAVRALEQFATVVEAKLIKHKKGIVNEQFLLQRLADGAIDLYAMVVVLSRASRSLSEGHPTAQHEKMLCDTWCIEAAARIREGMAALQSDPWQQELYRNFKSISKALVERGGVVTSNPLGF
Text: as §1, §2

[3] = sheet Exp1, SKBR3 cells, 11 0.5 µM 3 h vs DMSO
[4] = sheet Exp1, SKBR3 cells, 11 0.5 µM 3 h vs with PU-H71 10 µM
[5] = sheet Merged, SKBR3 cells, 11 0.5 µM 3 h vs DMSO
[6] = sheet Merged, SKBR3 cells, 11 0.5 µM 3 h vs with PU-H71 10 µM

Sequence of Pyruvate kinase PKM (PKM) (P14618 whole entry): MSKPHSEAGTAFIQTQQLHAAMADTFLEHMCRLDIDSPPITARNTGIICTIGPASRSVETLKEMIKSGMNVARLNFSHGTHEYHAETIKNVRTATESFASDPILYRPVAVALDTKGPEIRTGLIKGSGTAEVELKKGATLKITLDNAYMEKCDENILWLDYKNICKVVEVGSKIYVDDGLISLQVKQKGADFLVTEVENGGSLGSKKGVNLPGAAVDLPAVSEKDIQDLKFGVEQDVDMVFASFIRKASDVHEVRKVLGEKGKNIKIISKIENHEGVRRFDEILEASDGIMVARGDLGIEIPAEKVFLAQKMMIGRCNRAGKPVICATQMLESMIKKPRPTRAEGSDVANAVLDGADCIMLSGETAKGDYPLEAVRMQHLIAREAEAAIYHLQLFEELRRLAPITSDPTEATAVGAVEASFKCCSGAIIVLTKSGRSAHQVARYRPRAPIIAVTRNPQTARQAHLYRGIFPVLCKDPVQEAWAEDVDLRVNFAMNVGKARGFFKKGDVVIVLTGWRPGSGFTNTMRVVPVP

## CC(=O)Oc1ccc2c(c1)Oc1cc(OC(C)=O)ccc1C21OC(=O)c2cc(C(=O)NCCOCCOCCNC(=O)CCCC(=O)N(CC#N)S(=O)(=O)c3ccc(C(=O)NCCCn4c(Sc5cc6c(cc5I)OCO6)nc5c(N)ncnc54)cc3)ccc21 [compound 11]
[1]; Exp3, PKM
  Abundance Ratio: (11) / (11 with PU-H71): 1.148
  Abundance Ratio: (11) / (DMSO): 2.441
  Abundances (Grouped): 11: 100.1
  Abundances (Grouped): 11 with PU-H71: 87.2
[1]; [3]
  Abundance Ratio: (11) / (DMSO): 3.506
[1]; [4]
  Abundance Ratio: (11) / (11 with PU-H71): 0.917
[1]; sheet Exp2, PKM
  Abundance Ratio: (11) / (11 with PU-H71): 0.916
  Abundance Ratio: (11) / (DMSO): 2.005
  Abundances (Grouped): 11: 121.5
  Abundances (Grouped): 11 with PU-H71: 132.6
[1]; [5]
  Abundance Ratio: (11) / (DMSO): 3.4
[1]; [6]
  Abundance Ratio: (11) / (11 with PU-H71): 0.922
[2]; Exp3, ACADVL
  Abundance Ratio: (11) / (11 with PU-H71): 0.845
  Abundance Ratio: (11) / (DMSO): 5.056
  Abundances (Grouped): 11: 1747
  Abundances (Grouped): 11 with PU-H71: 2067.1
[2]; [3]
  Abundance Ratio: (11) / (DMSO): 5.466
[2]; [4]
  Abundance Ratio: (11) / (11 with PU-H71): 0.816
[2]; sheet Exp2, ACADVL
  Abundance Ratio: (11) / (11 with PU-H71): 0.826
  Abundance Ratio: (11) / (DMSO): 4.735
  Abundances (Grouped): 11: 1334.4
  Abundances (Grouped): 11 with PU-H71: 1615.2
[2]; [5]
  Abundance Ratio: (11) / (DMSO): 4.735
[2]; [6]
  Abundance Ratio: (11) / (11 with PU-H71): 0.826
